The record followed here is US7329677B2, “Imidazo(4,5-b)pyridine-derivatives as inducible no-synthase inhibitors” (Altana Pharma AG, priority 2003, dated 2008).

Counter-ions that a name gives are not always drawn.

Data set [1] concerns the target T1, human inducible NO-synthase (Homo sapiens, UniProt P35228).
T1 construct: host or cells: crude cytosolic fraction
Briefly: Measurement of inducible NO-synthase activity ([3H]arginine conversion). The data set is classed as biochemical. Particulars: crude cytosolic fraction containing human inducible NO-synthase; 0.1 μM arginine; 45 to 60 min at 37° C.; read-out: Inhibition of iNOS activity [measured as −logIC50 (mol/l)] (converted). As to the method:
The assay is performed in 96-well microtiter F-plates (Greiner, Frickenhausen, FRG) in a total volume of 100 μl in the presence of 100 nM calmodulin, 226 μM CaCl2, 477 μM MgCl2, 5 μM flavin-adenine-dinucleotide (FAD), 5 μM flavin mononucleotide (FMN), 0.1 mM NADPH, 7 mM glutathione, 10 μM BH4 and 100 mM HEPES pH 7.2. Arginine concentrations are 0.1 μM for enzyme inhibition experiments. 150000 dpm of [^3H]arginine are added to the assay mixture. Enzyme reaction is started by the addition of 4 μg of a crude cytosolic fraction containing human inducible NO-synthase and the reaction mixture is incubated for 45 to 60 min at 37° C. Enzyme reaction is stopped by adding 10 μl of 2M MESbuffer pH 5,0. […] of the incubation mixture are transferred into a MADP N65 filtration microtiter plate (Millipore, Eschborn, FRG) containing already 50 μl of AG-50W-X8 cation exchange resin (Biorad, München, FRG). […] Scintillation plates are counted in a szintillation counter.
For the measurement of inducible NO-synthaseinhibiting potencies of compounds increasing concentrations of inhibitors were included into the incubation mixture. IC50-values were calculated from the percent inhibition at given concentrations by nonlinear least square fitting.

Regarding `COc1ccnc(CC(C)c2nc3cccnc3[nH]2)c1` (racemic) [Example 1, (R,S)-2-[3-(4-Methoxypyridin-2-yl)prop-2-yl]-3H-imidazo[4,5-b]pyridine hydrochloride], the IC50 in data set [1] is 70.8 nM. In turn, `COc1ccnc(CC(C)c2nc3cccnc3[nH]2)c1` (racemic) (as salt: hydrochloride) [Example 1, (R,S)-2-[3-(4-Methoxypyridin-2-yl)prop-2-yl]-3H-imidazo[4,5-b]pyridine hydrochloride] came in with a melting point of 61 to 64 °C.

What is called melting point is the temperature, or range, at which the solid turns liquid.
